Reference: US5681842A, “Prostaglandin synthase-2 inhibitors” (Abbott Laboratories, priority 1996, dated 1997)

What was measured:
[1] = tested on: prostaglandin production in the pleural cavity; assay: Carrageenan induced pleurisy test (CIP); assay type: in vivo, Sprague-Dawley rats; settings: rats, 10 mg/kg oral, 30 minutes prior to intrapleural carrageenan; lavage four hours after
Method: (§1) EIA reagents for prostaglandin determination were purchased from Perseptive Diagnostics, Cambridge, Mass. PGE2 levels in lavage fluids were determined after the samples were dried under nitrogen and reconstituted with assay buffer. PGE2 levels in enzyme assays or cell culture media were measured against standards prepared in the same milieu. The immunoassays were conducted as recommended by the manufacturer. The EIA was conducted in 96 well microtiter plates (Nunc Roskilde, Denmark) and optical density measured using a microplate reader (Vmax, Molecular Devices Corp., Menlo Park, Calif.).
Inhibition of carrageenan induced pleurisy in rats was determined essentially as described by F. B. De Brito, (Pleurisy and Pouch Models of Acute Inflammation in Pharmalogical Methods in the Control of Inflammation, Eds, J. Y. Chang and A. J. Lewis, Alan Liss Inc., New York: 173-194, 1989) and Vinegar et al. ("Quantitative studies of the pathway to acute carrageenan inflammation", Fed. Proc., 35:2447-2456 (1976)). Briefly, eight Sprague-Dawley rats were orally dosed with 10 mg/kg of a compound of the invention 30 minutes prior to intrapleural injection of 2% lambda carrageenan (Sigma Chemical Co., St. Louis Mo.). Four hours after carrageenan injection, the animals were euthanized and their pleural cavities lavaged with ice cold saline. The lavage fluid was then added to two volumes of ice cold methanol (final methanol concentration 66%) to lyse cells and precipitate protein. Prostaglandin levels in the methanol/lavage fluid were then determined by EIA.

[2] = target: T1, recombinant human PGHS-2 (Homo sapiens, UniProt P35354); assay: Recombinant human PGHS-2 enzyme assay (PGE2 by EIA); assay type: biochemical; settings: for inhibition at 0.1 µM: 100 nM compound, microsomes, 60 min preincubation, 10 μM arachidonic acid, read-out: RHuPGHS-2 (% I @ 100 nM)
T1 construct: made in house; host or cells: baculovirus/Sf9 insect cells (microsomes)
T1 sequence (P35354 18-604): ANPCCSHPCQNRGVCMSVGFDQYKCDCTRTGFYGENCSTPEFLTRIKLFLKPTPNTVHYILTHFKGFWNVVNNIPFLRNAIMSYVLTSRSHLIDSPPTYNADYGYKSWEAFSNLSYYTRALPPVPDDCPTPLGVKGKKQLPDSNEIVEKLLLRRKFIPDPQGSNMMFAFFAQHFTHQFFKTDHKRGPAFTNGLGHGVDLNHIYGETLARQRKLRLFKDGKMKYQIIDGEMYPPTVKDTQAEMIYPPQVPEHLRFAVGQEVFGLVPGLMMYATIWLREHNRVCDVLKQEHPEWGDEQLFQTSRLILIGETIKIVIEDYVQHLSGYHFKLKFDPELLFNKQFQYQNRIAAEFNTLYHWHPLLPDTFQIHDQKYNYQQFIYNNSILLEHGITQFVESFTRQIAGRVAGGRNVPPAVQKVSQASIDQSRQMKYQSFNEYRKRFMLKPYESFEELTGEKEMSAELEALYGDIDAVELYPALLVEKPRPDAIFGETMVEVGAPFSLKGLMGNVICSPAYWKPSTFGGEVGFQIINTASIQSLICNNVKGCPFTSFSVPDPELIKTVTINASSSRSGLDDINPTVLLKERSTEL
Method: (§2) A compound of the invention dissolved in DMSO (3.3% v/v) was preincubated with microsomes from recombinant human PGHS-1 or PGHS-2 expressed in the baculovirus/Sf9 cell system (Gierse, J. K., Hauser, S. D., Greely, D. P., Koboldt, C., Rangwala, S., H., Isakson, P. C., and Seibert, K. "Expression and selective inhibition of the constitutive and inducible forms of cyclooxygenase", Biochem J. 305:479 (1995)), together with the cofactors phenol (2 mM) and hematin (1 μM) for 60 minutes prior to the addition of 10 μM arachidonic acid. The reaction was allowed to run for 2.5 minutes at room temperature prior to quenching with HCl and neutralization with NaOH. PGE2 production in the presence and absence of the drug was determined by EIA analysis.
as §1

[3] = target: T2, recombinant human PGHS-1 (Homo sapiens, UniProt P23219); assay: Recombinant human PGHS-1 enzyme assay (PGE2 by EIA); assay type: biochemical; settings: 100 μM compound; microsomes, 60 min preincubation, 10 μM arachidonic acid; read-out: RHuPGHS-1 (% I @ 100μM)
T2 construct: made in house; host or cells: baculovirus/Sf9 insect cells (microsomes)
T2 sequence (P23219 24-599): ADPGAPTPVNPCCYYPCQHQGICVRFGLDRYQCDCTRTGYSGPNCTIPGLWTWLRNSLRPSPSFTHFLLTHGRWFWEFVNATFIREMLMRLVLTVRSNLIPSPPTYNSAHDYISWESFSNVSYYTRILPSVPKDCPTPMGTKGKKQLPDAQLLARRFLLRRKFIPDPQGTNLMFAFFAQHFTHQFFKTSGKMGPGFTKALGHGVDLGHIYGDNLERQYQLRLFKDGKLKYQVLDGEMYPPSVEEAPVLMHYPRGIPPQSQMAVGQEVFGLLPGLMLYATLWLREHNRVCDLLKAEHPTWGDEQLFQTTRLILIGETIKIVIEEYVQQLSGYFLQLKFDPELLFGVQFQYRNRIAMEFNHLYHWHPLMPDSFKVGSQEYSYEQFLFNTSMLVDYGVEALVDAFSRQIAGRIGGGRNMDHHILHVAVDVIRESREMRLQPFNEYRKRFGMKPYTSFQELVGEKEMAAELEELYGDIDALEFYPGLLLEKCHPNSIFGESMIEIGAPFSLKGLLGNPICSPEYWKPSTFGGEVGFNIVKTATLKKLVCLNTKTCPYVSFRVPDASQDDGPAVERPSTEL
Method: as §2, §1

inhibition at 0.1 µM [2] [%] | inhibition at 100 µM [3] [%] | inhibitory potency against recombinant human PGHS-2 (in words) [2] | Compound | inhibition of prostaglandin production in the pleural cavity [1] [%]
59 | 89 |  | CS(=O)(=O)Nc1ccc([N+](=O)[O-])cc1Oc1ccc2sccc2c1 [Example 3, N-(4-Nitro-2-(benzothiophen-5'-yloxy)phenyl)methanesulfonamide] | 48
77 | 89 | most potent | CS(=O)(=O)Nc1ccc([N+](=O)[O-])cc1Oc1ccc2c(c1)OCO2 [Example 5, N-(4-Nitro-2-(1,3-benzodioxol-6-yloxy)phenyl)methanesulfonamide] | 36
43 | 31 |  | CS(=O)(=O)Nc1ccc([N+](=O)[O-])cc1Oc1ccc2ncsc2c1 [Example 4] | 66
56 | 26 |  | CS(=O)(=O)Nc1ccc([N+](=O)[O-])cc1Oc1ccc2cc(F)ccc2c1 [Example 2, N-(4-Nitro-2-(6'-fluoro-naphth-2'-yloxy)phenyl)methanesulfonamide] | 20
65 | 47 |  | CS(=O)(=O)Nc1ccc([N+](=O)[O-])cc1Oc1ccc2ccccc2c1 [Example 1, N(4-Nitro-2-(naphth-2'-yloxy)phenyl)methanesulfonamide] | 
